{
  "source": "patent US9844535B2",
  "about": "“SHP2 inhibitors and methods of treating autoimmune and/or glomerulonephritis-associated diseases using SHP2 inhibitors” (Indiana University Research and Technology Corporation, priority 2013, dated 2017)",
  "key": {"[1]": {"system": "serum IgG and anti dsDNA IgG", "assay": "Serum IgG and anti-dsDNA IgG ELISA", "type": "in vivo, mouse", "conditions": "SLE mice serum", "source_text": "(§1) ELISA assays were used to detect for the presence of various cytokines in mouse serum isolated from vehicle or drug-treated animals or from medium supernatant isolated from tissue cell cultures as described above. In addition, ELISA was also used to detect total IgG and dsDNA IgG from mouse serum and for the assay to detect urine albumin and creatinine levels. ELISA detection kits for mouse cytokines IL-6 and TNFα were purchased from eBioscience, mouse cytokines IL-17A, IFNγ, and human IFNγ were purchased from Biolegend, kits for the albumin and creatinine were purchased from Exocell, and kits for the serum IgG and anti-dsDNA IgG were purchased from Alpha Diagnostic (San Antonio, Tex.). ELISAs were all performed according to the manufacturer's instructions.\nSerum IgG and anti-dsDNA IgG: 100 μl of 1:50000× diluted serum for IgG and 100 μl of 1:20000× diluted serum for dsDNA IgG were used and loaded onto a precoated 96-well plate in duplicate for 1 hour at room temperature. […] The OD of the wells was determined using a microplate reader set at a wavelength of 450 nm.\nIn this Example, the effect of the SHP2 inhibitor, L97M74, on the onset of SLE disease progression was evaluated by measuring the levels of auto antibodies in SLE inhibitor-treated versus vehicle-treated mice through detection anti-histone antibodies and anti-IgG by ELISA."}, "[2]": {"molecular_target": "SHP2 (Mus musculus (Mouse), UniProt P35235)", "sequence (P35235 whole entry)": "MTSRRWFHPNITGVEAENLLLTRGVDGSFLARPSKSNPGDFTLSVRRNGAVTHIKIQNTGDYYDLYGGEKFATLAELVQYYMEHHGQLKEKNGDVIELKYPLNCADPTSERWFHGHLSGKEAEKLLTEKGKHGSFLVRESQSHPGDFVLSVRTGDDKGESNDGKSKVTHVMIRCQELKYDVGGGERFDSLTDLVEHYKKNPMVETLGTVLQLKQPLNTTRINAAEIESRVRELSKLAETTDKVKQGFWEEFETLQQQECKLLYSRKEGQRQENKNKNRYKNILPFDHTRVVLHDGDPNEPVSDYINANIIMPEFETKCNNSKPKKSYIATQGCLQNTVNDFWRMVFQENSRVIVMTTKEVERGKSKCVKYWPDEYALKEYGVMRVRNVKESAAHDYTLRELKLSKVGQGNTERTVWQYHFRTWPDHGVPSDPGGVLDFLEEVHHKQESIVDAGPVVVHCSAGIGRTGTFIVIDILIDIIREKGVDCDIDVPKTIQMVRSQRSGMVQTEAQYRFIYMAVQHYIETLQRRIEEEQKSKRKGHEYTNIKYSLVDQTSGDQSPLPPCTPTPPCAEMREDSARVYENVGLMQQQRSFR", "assay": "Immune complex PTP assay on tissue lysates of inhibitor-treated MRL/lpr mice", "type": "in vivo", "conditions": "7.5 mg/kg daily for 4 weeks, listed as SHP2 inhibitor", "procedure": "Briefly, female MRL/MpJ-fas lpr (MRL/lpr), MRL/Mpj and C57BL/6J mice were purchased from the Jackson Laboratory (Bar Harbor, Me.). For experiments, mice within each group were ip injected with either vehicle (DMSO) or the SHP2 inhibitor (7.5 mg/kg/per day). […] Body weight was measured daily and treatment dosage was adjusted accordingly. At the end of the treatment period, mice were sacrificed with CO2 exsanguination and SLE targeted organs were removed. For each mouse, spleen, kidney, and heart weight were calculated. In addition, total animal body weight and tibia length were measured. Peripheral blood/serum was also collected for use in the cytokine assays described below.\nPTP assays were conducted as previously described in Kontaridis et al., J Biol Chem. 2006; 281:6785-6792, using para-nitrophenyl phosphate (pNPP, obtained from Sigma) as substrate. […] Reactions were terminated with 0.2 N NaOH and phosphate release was determined by measuring A410. […]"}, "[3]": {"system": "IFNγ, TNFα, IL17, IL6", "assay": "Cytokine ELISA", "type": "in vivo, mouse", "conditions": "SLE-prone mice", "source_text": "as §1\nCytokine analyses: In brief, capture antibodies for each cytokine were precoated on 96-well plates overnight at 4° C., then 100 μl of 5× diluted serum or 300× diluted supernatant medium was loaded on the precoated wells in duplicate and left overnight at 4° C. (with the exception of the human IFNγ assay isolated from supernatant medium, where the dilution used was 1:30). As per the protocol instructions, enzyme-antibody conjugate, TMB substrate and stopping buffer were added sequentially. The colorimetric analysis, as measured by optical density (OD) within each well, was determined using a microplate reader set at a wavelength of 450 nm. The cytokine concentrations were calculated and measured against a standard curve for each cytokine.\nAn ELISA was conducted to detect concentrations of IFNγ, TNFα, IL17, and IL6 in T cells derived from spleen."}, "[4]": {"system": "circulating blood cells of SLE-prone mice", "assay": "Blood cell counts and circulating lymphocyte subsets", "type": "in vivo, mouse", "procedure": "50 μl of peripheral blood was collected from mice upon sacrifice and was mixed with 5 mM EDTA anticoagulant to be used for blood cell counts (Hemavet 850FS), to determine numbers of white blood cells (neutrophil, lymphocytes, monocytes, eosinophil and basophil), red blood cells and platelets. In addition, peripheral blood isolated from MRL/lpr mice either treated with vehicle (DMSO) or SHP2 inhibitor was used to count the percentage of lymphocyte subsets, including B cells, CD4+, CD8+ and double negative (DN) T cells through flow cytometry (see below).\nTo identify immune cell subsets, isolated cells from tissues were immunostained with mouse antibodies targeted against CD3E (145-2C11, BioLegend, San Diego, Calif.), CD4 (GK1.5, BioLegend), CD8 (53-6.7, eBioscience, San Diego, Calif.), CD45 (30-F11, eBioscience), CD 19 (6125, BioLegend), CD11b (M1170, BioLegend), TCRαβ (H57-597, BioLegend), CD44 (IM7, BioLegend), B220 (RA3-6B2, B.D. […], BD Biosciences, San Jose Calif.), CD138 (281-2, BioLegend), CD38 (CD28.2, BioLegend), Gr-1 (RB6.805, eBioscience), CD62L (DREG-56, BioLegend), and CD25 (PC61, BioLegend) for 30 minutes at 4° C. Samples were acquired on a LSR II flow cytometer (BD Biosciences) and the percentage of each sub-population of cells (B, T, monocytes, macrophage and neutrophils) was assessed by FlowJo [version 7.2.2 (Tree Star)]. Total cell numbers were counted using a hemocytometer. Absolute cell numbers for each sub-population were calculated based on the percentage of each population."}},
  "note": "“Also recorded” adds a separate entry of the source.",
  "data": [
    {"smiles": "Cn1c(-c2cccc(NC(=O)C(=O)Nc3ccc(-c4ccsc4)cc3)c2)c(I)c2cc(C(=O)O)c(O)cc21", "note": "[11a-1]", "values": [
      {"measurement": "levels of IgG", "setting": "[1]", "value": "not reduced"},
      {"measurement": "levels of double-stranded DNA (anti dsDNA IgG)", "setting": "[1]", "value": "not reduced"},
      {"measurement": "SHP2 activity in tissue lysates", "setting": "[2]", "value": "normalized SHP2 activity back to levels of WT; also recorded: normalize SHP2 activity"},
      {"measurement": "IFNγ", "setting": "[3]", "value": "significant decreases"},
      {"measurement": "IL6", "setting": "[3]", "value": "No effects"},
      {"measurement": "IL17", "setting": "[3]", "value": "No effects"},
      {"measurement": "TNFα", "setting": "[3]", "value": "No effects"},
      {"measurement": "circulating CD4 and CD8 positive T cell populations", "setting": "[4]; SLE mice", "value": "not the CD4 and CD8 positive T cell populations"},
      {"measurement": "circulating T cell leukocyte population", "setting": "[4]; SLE mice", "value": "significantly altered in SLE and inhibited"},
      {"measurement": "circulating double negative T cells", "setting": "[4]; SLE mice", "value": "only the double negative cells"},
      {"measurement": "circulating leukocytes", "setting": "[4]; SLE mice vs vehicle", "value": "significantly reduced"},
      {"measurement": "circulating neutrophils, monocytes, eosinophils, basophils", "setting": "[4]; SLE mice vs vehicle", "value": "not neutrophils, monocytes, eosinophils, or basophils"},
      {"measurement": "red blood cells or platelets", "setting": "[4]; SLE mice vs vehicle", "value": "no effects observed"},
      {"measurement": "white blood cell (WBC) population", "setting": "[4]; SLE mice vs vehicle", "value": "specifically targets the white blood cell (WBC) population"}
    ]}
  ]
}
